Measured values: PubChem BioAssay AID179 (DTP/NCI, 2004)
Calls of active or inactive are those of the source.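 How the source made its calls: active means compounds giving half or more protection of infected cells from virus-caused growth loss, again on retest; inactive means the rest.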

Tested on: CEM cells HIV-1 protection, formazan growth assay
Assay: NCI AIDS Antiviral Assay
Details: for IC50: measured here: growth of uninfected CEM cells
Procedure, shortened: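 Protection of CEM cells against HIV-1 was scored from cell growth (soluble formazan) across five concentrations, with parallel uninfected cells. Lack of protection may reflect toxicity.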

Row | Structure (SMILES) | EC50 [µM] | IC50 [µM] | outcome
1 | CC(C)CCC[C@@H](C)[C@H]1CC[C@H]2[C@@H]3CC[C@H]4C[C@@H](CCC=C(c5cc(Cl)c(OCc6ccccc6C(=O)O)c(C(=O)O)c5)c5cc(Cl)c(OCc6ccccc6C(=O)O)c(C(=O)O)c5)CC[C@]4(C)[C@H]3CC[C@]12C | 67.6 | > 200 | –
2 | O=C1CCCc2cc3c(cc21)CC1(Cc2ccccc2C1)C3 | > 200 | 1.29 | –
3 | CCOC(=O)C(NC(=O)OC(C)(C)C)C(=O)OCC | > 200 | > 200 | –
4 | CCCCCC[C@H]1CC(=O)C2CCCC[C@@]23CC[C@H](CCl)N13 (stereo partly specified) (tested in a mixture with another compound) | > 200 | 105 | –
5 | C#CCNC(=O)N(CC#C)N=O | > 1100 | 166 | –
6 | COc1cc(/C=C/c2nc3ccccc3nc2/C=C/c2cc(OC)c(OC)c(OC)c2)cc(OC)c1OC | > 7.41 | > 7.41 | –
7 | O=[N+]([O-])c1nccn1CCCN=c1c2ccccc2n(O)c2ccccc12 | > 200 | 46.8 | –
8 | O=C1C2[C@@H](C(=O)N1c1ccc(Br)cc1)C13C(=CC2([N+](=O)[O-])[C@@H]2C(=O)N(c4ccc(Br)cc4)C(=O)[C@@H]21)c1ccccc1N3c1ccccc1 (stereo partly specified) | > 6.76 | > 6.76 | –
9 | C=CCn1c(=O)c(C(=O)Nc2nc(C34CC5CC(CC(C5)C3)C4)cs2)c(O)c2ccccc21 | > 200 | 77.6 | –
10 | O=S(=O)(O)c1ccc(-c2nnc(-c3ccccn3)nc2-c2ccc(S(=O)(=O)O)o2)o1 | > 200 | > 200 | –
11 | O=c1ccc2c(-c3ccccc3S(=O)(=O)O)c3ccc(O)c(O)c3oc-2c1O | 2.4 | > 200 | –
12 | NNC(=O)CC(=O)Nc1ccc(Cl)cc1 | > 200 | 112 | –
13 | CCN(CC)CCN(C(=O)C(C)(C)C)c1ccccc1N | > 200 | > 200 | –
14 | O=C(NNC(=S)NC1OC(CO)C(O)C(O)C1O)c1cccc(C(=O)NNC(=S)NC2OC(CO)C(O)C(O)C2O)n1 (stereo unspecified) | – | > 200 | –
15 | CC(=O)On1c(-c2ccccc2)nc2ccccc2c1=S | > 200 | 1.35 | –
16 | C/C(=C\C(=O)OCCCCCCCC(=O)Nc1c2sscc-2[nH]c1=O)C(O)[C@@H]1OCC(C/C=C/[C@@H](C)[C@H](C)O)[C@@H](O)[C@H]1O (stereo partly specified) | > 200 | 3.16 | –
17 | CC1NC(=O)C2=C1C(=O)NC(=O)C2 (stereo unspecified) | 40.7 | 195 | –
18 | O=S(Cc1ccccc1)c1nc2ccccc2nc1-c1cccs1 (stereo unspecified) | > 74.1 | 13.5 | –
19 | CC(=O)Oc1ccc2c(c1)oc1c3ccc(OC(C)=O)cc3n(C)c(=O)c21 | > 200 | 107 | –
20 | COC(=O)c1c(C)cccc1/C=C1\Cc2ccc(C)c(C)c2C1=O | > 200 | > 200 | –

Row | Structure (SMILES) | EC50 [µM] | IC50 [µM] | outcome
21 | O=S1(=O)O[C@H]2CCCC[C@@H]2O1 | > 45.7 | > 45.7 | –
22 | CC(=O)Nc1ccc2oc(=O)ccc2c1 | > 1230 | 562 | –
23 | CSc1c(C(=O)Nc2ccc(C)cc2)c(N)nn1-c1ccccc1 | > 200 | > 200 | –
24 | O=C1c2cc3c(cc2CC12Cc1cc4c(cc1C2=O)CCCC4)CCCC3 | > 200 | > 200 | –
25 | CC(=O)OC(C)CC[P+](c1ccccc1)(c1ccccc1)c1ccccc1 (stereo unspecified) | > 200 | 75.9 | –
26 | O=C1Cn2c(c3ccccc3nc2=O)N1 | > 10 | > 10 | –
27 | COC1=CC(O)(CC(N)=O)c2ccccc2C1=O (stereo unspecified) | > 1000 | > 1000 | –
28 | CC(=O)Nc1nc(Cl)c2ncn(C3CCCO3)c2n1 (stereo unspecified) | > 200 | 22.4 | –
29 | O=c1c2ccccc2c(=O)c2cc3c(=O)n(-c4ccccc4)c(=O)c3cc12 | – | – | inactive
30 | CC(C)(C)C(=O)OCC1CCC(n2cnc3c(=O)[nH]c(N)nc32)O1 (stereo unspecified) | > 15.5 | > 15.5 | –
31 | CCSC(CCCC1OCC2OC(n3cc(C)c(=O)[nH]c3=O)CC2N1O)SCC (stereo unspecified) | > 200 | 135 | –
32 | C/C(CCn1[nH]c(=O)ccc1=O)=N\OCCCc1ccccc1 | > 417 | > 417 | –
33 | CCOC(=O)N1N=C(/C(C)=N/OC)C(C)S1=O (stereo unspecified) | > 200 | 148 | –
34 | N#CC(C(=O)/C(=N/N)C(C#N)c1ccc(Cl)cc1)c1ccc(Cl)cc1 (stereo unspecified) | > 676 | > 676 | –
35 | O=C(O)C1C(C(=O)O)N2C(c3ccccc3)C(C(=O)O)C(C(=O)O)N2C1c1ccccc1 (stereo unspecified) | > 214 | > 214 | –
36 | COc1ccc(C[C@H]2COC(=O)[C@@H]2Cc2cc(OC)c(O)c(OC)c2)cc1OC | > 200 | 39.8 | –
37 | COC(=O)C(=O)/C=C(/O)c1ccc(OC)cc1 | > 200 | > 200 | –
38 | [Cu+2].[NH-]c1ccccc1C(=O)O.[NH-]c1ccccc1C(=O)O | > 200 | 17.4 | –
39 | COc1cccc(CC2NCCc3c2[nH]c2ccccc32)c1 (stereo unspecified) | > 251 | 46.8 | –
40 | COc1ccc(C(c2ccc3c(c2)OCO3)N2C(=O)CCC2C(=O)O)cc1 (stereo unspecified) | > 200 | > 200 | –

Row | Structure (SMILES) | EC50 [µM] | IC50 [µM] | outcome
41 | COC(=O)C1=C(C(=O)OC)C(C(=O)OC)N2C=CC=CC2=C1C(=O)OC (stereo unspecified) | > 200 | > 200 | –
42 | CC1(c2ccccc2)CCCC/C1=N/NC(N)=O (stereo unspecified) | 105 | 129 | –
43 | Cc1ccc2c(n1)NC(=O)C(Cc1ccccc1)(N=[N+]=[N-])C2=O (stereo unspecified) | > 200 | > 200 | –
44 | COc1cc(C2c3cc4c(cc3OC(NNS(=O)(=O)c3ccc(C)cc3)C2C)OCO4)cc(OC)c1OC (stereo unspecified) | > 20 | 0.372 | –
45 | COC(=O)c1c/c(=N\NC(=O)CC(=O)Nc2ccc(C)cc2)c2ccccc2o1 | > 631 | > 631 | –
46 | COc1cccc(N2C(=O)[C@H]3CC(C)c4c([nH]c5ccccc45)[C@H]3C2=O)c1 (stereo partly specified) | > 35.5 | > 35.5 | –
47 | COC[n+]1cc2cc(OC)c(OC)cc2c2ccc3cc(OC)c(OC)cc3c21 | > 31.6 | > 31.6 | –
48 | O=C(c1ccccc1)c1nc2ccc(Cl)cc2c2c1CCCO2 | > 16.2 | > 16.2 | –
49 | COC(=O)CCC1CCc2c(OC)ccc(OC)c2C1=O (stereo unspecified) | – | – | inactive
50 | CN(C)CC1CN(C(=O)Nc2ccccc2)C(=N)O1 (stereo unspecified) | > 200 | > 200 | –
51 | CC1CC(=O)Nc2ccccc2N1 (stereo unspecified) | > 200 | > 200 | –
52 | CSC1=N/C(=C\c2ccc(C)cc2)C(=O)N1CN1CCOCC1 | > 200 | 34.7 | –
53 | C[N+]1(C)CC2C3C=C(I)C(C3)C2C1 (stereo unspecified) | > 214 | > 214 | –
54 | CN/N=C(\C(=O)Nc1ccc(C(F)(F)F)cc1[N+](=O)[O-])C(c1cnc2ccc([N+](=O)[O-])cc2n1)[N+](=O)[O-] (stereo unspecified) | > 251 | 138 | –
55 | C=C(COC(=O)CC1(CC(=O)O)CCCC1)[C@@H]1CC[C@]2(COC(=O)CC3(CC(=O)O)CCCC3)CC[C@]3(C)[C@H](CC[C@@H]4[C@@]5(C)CC[C@H](OC(=O)CC6(CC(=O)O)CCCC6)C(C)(C)[C@@H]5CC[C@]43C)[C@@H]12 | > 200 | 8.71 | –
56 | CC[C@H](C)N(CCN)C(=O)c1cc2ccccc2c(-c2ccccc2Cl)n1 | – | – | inactive
57 | CCC(C)N1CN(c2ccccc2)C2(CCN(CC3COc4ccccc4O3)CC2)C1=O (stereo unspecified) | > 200 | 29.5 | –
58 | N#CCCN(CCC#N)c1ccc(/C=C2\N=C(c3ccccc3)N(c3ccc(Cl)cc3)C2=O)cc1 | > 200 | > 200 | –
59 | N#CC(C(=O)C(=O)Nc1ccc(Cl)c(Cl)c1)c1ccc(Cl)cc1 (stereo unspecified) | > 135 | 107 | –
60 | Clc1cccc(Sc2ccccc2)c1 | > 23.4 | > 23.4 | –
